This passage reports Dmax and DC50 results from patent publication US20250195513A1, “DEGRADATION OF IRAK4 BY CONJUGATION OF IRAK4 INHIBITORS WITH E3 LIGASE LIGAND AND METHODS OF USE” (BeiGene, Ltd., priority 2022, published 2025).

Read-outs that look alike come from different tables or passages of the source.

This assay concerns the target T1, IRAK4 (Homo sapiens, UniProt Q9NWZ3).
T1 construct: endogenous in cells; host or cells: Karpas299
T1 sequence (Q9NWZ3 1-460): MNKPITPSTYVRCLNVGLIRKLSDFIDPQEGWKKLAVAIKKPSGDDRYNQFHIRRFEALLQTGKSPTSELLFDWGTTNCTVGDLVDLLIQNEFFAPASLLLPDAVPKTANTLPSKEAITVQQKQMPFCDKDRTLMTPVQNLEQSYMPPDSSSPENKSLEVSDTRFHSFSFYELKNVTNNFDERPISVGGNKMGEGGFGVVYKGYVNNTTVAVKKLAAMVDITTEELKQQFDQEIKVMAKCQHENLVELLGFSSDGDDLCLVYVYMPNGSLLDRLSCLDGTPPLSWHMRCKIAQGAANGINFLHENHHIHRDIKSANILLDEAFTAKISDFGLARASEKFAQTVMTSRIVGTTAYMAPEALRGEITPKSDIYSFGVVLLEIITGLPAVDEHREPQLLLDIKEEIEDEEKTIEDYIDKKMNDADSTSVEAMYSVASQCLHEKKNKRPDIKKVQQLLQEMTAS
Nature of the assay: IRAK4 Degradation Assay (Karpas299, HTRF/TR-FRET). The format is cell-based. The procedure:
IRAK4 degradation was measured using a TR-FRET-based method (Degorce, François, et al. Current chemical genomics. 2009, 3: 22). Karpas299 maintained in RPMI 1640 medium (Thermo Scientific) supplemented with 20% fetal bovine serum (FBS, Thermo Scientific), 100 units/mL penicillin and 0.1 mg/mL streptomycin (Thermo Scientific) were seeded into 96-well plates at the density of 0.2 million cells per well and then treated with a series dilution of compounds. After 24 hours or 5 hours treatment, cells were pelleted via centrifugation and 40 μL lysis buffer (Cisbio) was added to each well after removal of the supernatant. Plates were then incubated at room temperature with shaking for 30 minutes. A total of 16 μL of cell lysates from each well of a 96-well plate was transferred to a 384-well white assay plate. IRAK4 level was quantitated using the HTRF kit as described by the manufacturer manual (Cisbio). FRET signals were measured using a PHERAstar FSX reader (BMG Labtech).
After treatment, add HTRF lysis buffer to each well; seal the plate and incubate 1 hour at room temperature on a plate shaker; Once the cells are lysed, 16 μL of cell lysate are transferred to a PE 384-well HTRF detection plate; 4 μL of pre-mixed HTRF antibodies are added to each well; Cover the plate with a plate sealer, spin 1000 rpm for 1 min, Incubate overnight at room temperature; Read on BMG PheraStar with HTRF protocol (337 nm-665 nm-620 nm).
The inhibition (degradation) percentage of the compound was calculated by the following equation: […]
The IC50 (DC50) value of a compound can be obtained by fitting the following equation
Wherein, X and Y are known values, and IC50, Hillslope, Top and Bottom are the parameters obtained by fitting with software. Y is the inhibition percentage (calculated from the equation), X is the concentration of the compound; IC50 is the concentration of the compound when the […] is reached. The smaller the IC50 value is, the stronger the inhibitory ability of the compound is. Vice versa, the higher the IC50 value is, the weaker the ability the inhibitory ability of the compound is; Hillslope represents the slope of the fitted curve, generally around 1 *; Bottom represents the minimum value of the curve obtained by data fitting, which is generally 0%±20%; Top represents the maximum value of the curve obtained by data fitting, which is generally 100%±20%. The experimental data were fitted by calculating and analyzing with Dotmatics data analysis software.

Setting [1] is: Karpas-299 cells, 5 h treatment, maximum percentage of degradation, read-out: IRAK4 in Karpas-299 (5 h) Dmax (%).
Setting [2] is: Karpas-299 cells, 5 h treatment, read-out: IRAK4 in Karpas-299 (5 h) DC50.
The mark [3] stands for this setting: Karpas-299 cells, 24 h treatment, maximum percentage of degradation, read-out: IRAK4 in Karpas-299 (24 h) Dmax (%).
Where [4] appears, read: Karpas-299 cells, 24 h treatment, read-out: IRAK4 in Karpas-299 (24 h) DC50.

For the molecule `O=C1CCN(c2ccc(N3CC(C(=O)N4CCN([C@H]5CC[C@H](n6cc(NC(=O)c7coc(-c8ccnc(NCC(F)(F)F)c8)n7)c(C(F)F)n6)CC5)CC4)C3)cc2)C(=O)N1` [Example 13, N-(3-(difluoromethyl)-1-((1r,4r)-4-(4-(1-(4-(2,4-dioxotetrahydropyrimidin-1(2H)-yl)phenyl)azetidine-3-carbonyl)piperazin-1-yl)cyclohexyl)-1H-pyrazol-4-yl)-2-(2-((2,2,2-trifluoroethyl)amino)pyridin-4-yl)oxazole-4-carboxamide], the Dmax under setting [1] came out at 84% and the Dmax under setting [3] stood at 94%. Further, the 50% degradation concentration (DC50) turned out to be 7.5 nM under setting [2] and 2.7 nM under setting [4].

In the case of `O=C1CCN(c2ccc(N3CC[C@@H](C(=O)N4CCN([C@H]5CC[C@H](n6cc(NC(=O)c7coc(-c8ccnc(NCC(F)(F)F)c8)n7)c(C(F)F)n6)CC5)CC4)C3)cc2)C(=O)N1` [Example 14, N-(3-(difluoromethyl)-1-((1R,4r)-4-(4-((R)-1-(4-(2,4-dioxotetrahydropyrimidin-1(2H)-yl)phenyl)pyrrolidine-3-carbonyl)piperazin-1-yl)cyclohexyl)-1H-pyrazol-4-yl)-2-(2-((2,2,2-trifluoroethyl)amino)pyridin-4-yl)oxazole-4-carboxamide], the Dmax under setting [3] was found to be 70%. Moreover, under setting [4], the DC50 amounted to 3.4 nM.

`O=C1CCN(c2ccc(N3CC[C@H](C(=O)N4CCN([C@H]5CC[C@H](n6cc(NC(=O)c7coc(-c8ccnc(NCC(F)(F)F)c8)n7)c(C(F)F)n6)CC5)CC4)C3)cc2)C(=O)N1` [Example 15, N-(3-(difluoromethyl)-1-((1S,4r)-4-(4-((S)-1-(4-(2,4-dioxotetrahydropyrimidin-1(2H)-yl)phenyl)pyrrolidine-3-carbonyl)piperazin-1-yl)cyclohexyl)-1H-pyrazol-4-yl)-2-(2-((2,2,2-trifluoroethyl)amino)pyridin-4-yl)oxazole-4-carboxamide]: the Dmax under setting [3] was determined as 30%. For the same molecule, the DC50 under setting [4] is above 10000 nM.

As to `O=C1CC[C@H](c2c(F)cc(N3CC(C(=O)N4CCN([C@H]5CC[C@H](n6cc(NC(=O)c7coc(-c8ccnc(NCC(F)(F)F)c8)n7)c(C(F)F)n6)CC5)CC4)C3)cc2F)C(=O)N1` [Example 16, N-(3-(difluoromethyl)-1-((1r,4r)-4-(4-(1-(4-((R)-2,6-dioxopiperidin-3-yl)-3,5-difluorophenyl)azetidine-3-carbonyl)piperazin-1-yl)cyclohexyl)-1H-pyrazol-4-yl)-2-(2-((2,2,2-trifluoroethyl)amino)pyridin-4-yl)oxazole-4-carboxamide], the half-maximal degradation concentration (DC50) came out at 0.67 nM (Degradation (Karpas-299), comparison table, Linker Type B, read-out: Compound (Linker Type B) DC50); 5.7 nM under setting [2]; 0.67 nM under setting [4]. Besides, the Dmax (Degradation (Karpas-299), comparison table, Linker Type B, read-out: Compound (Linker Type B) Dmax (%)) is 98%; the Dmax under setting [1] came to 96%; the Dmax under setting [3] turned out to be 98%.

Consider `CC1(C)CN(c2cc(F)c([C@H]3CCC(=O)NC3=O)c(F)c2)C[C@@H]1C(=O)N1CCN([C@H]2CC[C@H](n3cc(NC(=O)c4coc(-c5ccnc(NCC(F)(F)F)c5)n4)c(C(F)F)n3)CC2)CC1` [Example 18, N-(3-(difluoromethyl)-1-((1R,4r)-4-(4-((R)-1-(4-((R)-2,6-dioxopiperidin-3-yl)-3,5-difluorophenyl)-4,4-dimethylpyrrolidine-3-carbonyl)piperazin-1-yl)cyclohexyl)-1H-pyrazol-4-yl)-2-(2-((2,2,2-trifluoroethyl)amino)pyridin-4-yl)oxazole-4-carboxamide], for which the Dmax turned out to be 95% under setting [1] and 97% under setting [3]. The DC50 under setting [2] came out at 100 nM and the DC50 under setting [4] came to 9.7 nM.

For the molecule `O=C1CC[C@H](c2c(F)cc(N3CC(CN4CCN([C@H]5CC[C@H](n6cc(NC(=O)c7coc(-c8ccnc(NCC(F)(F)F)c8)n7)c(C(F)F)n6)CC5)CC4)C3)cc2F)C(=O)N1` [Example 19, N-(3-(difluoromethyl)-1-((1r,4r)-4-(4-((1-(4-((R)-2,6-dioxopiperidin-3-yl)-3,5-difluorophenyl)azetidin-3-yl)methyl)piperazin-1-yl)cyclohexyl)-1H-pyrazol-4-yl)-2-(2-((2,2,2-trifluoroethyl)amino)pyridin-4-yl)oxazole-4-carboxamide], the Dmax under setting [3] amounted to 95%. For the same molecule, the half-maximal degradation concentration (DC50) under setting [4] was determined as 1 nM.

`O=C1CC[C@H](c2c(F)cc(N3CCC(CN4CCN([C@H]5CC[C@H](n6cc(NC(=O)c7coc(-c8ccnc(NCC(F)(F)F)c8)n7)c(C(F)F)n6)CC5)CC4)CC3)cc2F)C(=O)N1` [Example 20, N-(3-(difluoromethyl)-1-((1r,4r)-4-(4-((1-(4-((R)-2,6-dioxopiperidin-3-yl)-3,5-difluorophenyl)piperidin-4-yl)methyl)piperazin-1-yl)cyclohexyl)-1H-pyrazol-4-yl)-2-(2-((2,2,2-trifluoroethyl)amino)pyridin-4-yl)oxazole-4-carboxamide]: the Dmax under setting [3] was found to be 97%. For the same molecule, under setting [4], the half-maximal degradation concentration (DC50) is 4.8 nM.

On to `O=C1CCN(c2ccc(N3CCC(N4CCN([C@H]5CC[C@H](n6cc(NC(=O)c7coc(-c8ccnc(NCC(F)(F)F)c8)n7)c(C(F)F)n6)CC5)CC4)C3)cc2)C(=O)N1` (stereo partly drawn) [Example 21, N-(3-(difluoromethyl)-1-((1r,4r)-4-(4-(1-(4-(2,4-dioxotetrahydropyrimidin-1(2H)-yl)phenyl)pyrrolidin-3-yl)piperazin-1-yl)cyclohexyl)-1H-pyrazol-4-yl)-2-(2-((2,2,2-trifluoroethyl)amino)pyridin-4-yl)oxazole-4-carboxamide], for which, under setting [3], the Dmax was found to be 98%. Also, the DC50 under setting [4] was determined as 4.4 nM.

As to `O=C1CCN(c2ccc(N3CC[C@H](C(=O)N4CCN([C@H]5CC[C@H](n6cc(NC(=O)c7coc(-c8ccnc(NCC9CC9)c8)n7)c(C(F)F)n6)CC5)CC4)C3)cc2)C(=O)N1` [Example 22, 2-(2-((cyclopropylmethyl)amino)pyridin-4-yl)-N-(3-(difluoromethyl)-1-((1S,4r)-4-(4-((S)-1-(4-(2,4-dioxotetrahydropyrimidin-1(2H)-yl)phenyl)pyrrolidine-3-carbonyl)piperazin-1-yl)cyclohexyl)-1H-pyrazol-4-yl)oxazole-4-carboxamide], the Dmax under setting [3] was 90%. Moreover, the half-maximal degradation concentration (DC50) under setting [4] worked out at 6.8 nM.

In the case of `O=C1CCN(c2ccc(N3CC[C@@H](C(=O)N4CCN([C@H]5CC[C@H](n6cc(NC(=O)c7coc(-c8ccnc(NCC9CC9)c8)n7)c(C(F)F)n6)CC5)CC4)C3)cc2)C(=O)N1` [Example 23, 2-(2-((cyclopropylmethyl)amino)pyridin-4-yl)-N-(3-(difluoromethyl)-1-((1R,4r)-4-(4-((R)-1-(4-(2,4-dioxotetrahydropyrimidin-1(2H)-yl)phenyl)pyrrolidine-3-carbonyl)piperazin-1-yl)cyclohexyl)-1H-pyrazol-4-yl)oxazole-4-carboxamide], the Dmax under setting [3] is 95%. Also, the DC50 under setting [4] amounted to 6 nM.

As to `O=C1CCN(c2ccc(N3CC(C(=O)N4CCN([C@H]5CC[C@H](n6cc(NC(=O)c7coc(-c8ccnc(NCC9CC9)c8)n7)c(C(F)F)n6)CC5)CC4)C3)cc2)C(=O)N1` [Example 24, 2-(2-((cyclopropylmethyl)amino)pyridin-4-yl)-N-(3-(difluoromethyl)-1-((1r,4r)-4-(4-(1-(4-(2,4-dioxotetrahydropyrimidin-1(2H)-yl)phenyl)azetidine-3-carbonyl)piperazin-1-yl)cyclohexyl)-1H-pyrazol-4-yl)oxazole-4-carboxamide], the maximal degradation (Dmax) under setting [3] stood at 98%. Further, the DC50 under setting [4] is 2.8 nM.
